From the supplement of paper PMC11208160

Experiment: recombinant barcode read abundance after kanamycin selection (control-corrected) (log10(CPM+1)); higher = more efficient recombination; sequences stand for … in AGTGCAGAGAAAATCGGCCAGTTTTCTCTGCCTGCAGTCCGCATGCCGT…AGATTTATGCAGCGGACTGCCTTTCTCCCAAAGTGATAAACCGGACAGTATCATGGACCGGTTTTCCCGGTAATCCGTATTTGCAAGGTTGGTTTCACT; site = the 11-nt target
Protocol: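 Pooled E. coli target-specificity screen for the IS621 bridge recombinase. Each library plasmid pairs an 11-nt target (CT core) with a bridge RNA whose target-binding loop (9-nt LTG + 4-nt RTG) is reprogrammed; the rest of the 177-nt WT IS621 bridge RNA scaffold is fixed. The plasmid is co-electroporated with a WT donor plasmid; recombinase is induced with 0.1 mM IPTG and recombinants are selected on kanamycin. Recombinant barcodes are sequenced, converted to CPM, averaged over two biological replicates and corrected by the unselected control CPM. Molecule = full bridge RNA written as DNA: LTG = specificity nt 1-9, RTG = reverse complement of specificity nt 8-11, in the WT scaffold.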
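Further: IS621 recombinase and bridge RNA in Escherichia coli cells.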

Sequence | recombinant barcode read abundance (log10)
ACTTGAACTTGGGTTCTAACCTGTTGCTT (site ACTTGAACTAA) | 0.0959
ACTTGAACTTGGGTTCTAACCTGTTGCTT (site ACTTTAGCTAA) | 0.0785
ACTTGAGCTTGGGTTCTAACCTGTTGCAT (site ACTTGAGCTAT) | 1.36
ACTTGAGCTTGGGTTCTAACCTGTTGCAT (site TAGACTCCTTG) | 0.232
ACTTTAACTTGGGTTCTAACCTGTTGCTT (site ACTATAACTAA) | 0.185
ACTTTAACTTGGGTTCTAACCTGTTGCTT (site ACTCTAACTAA) | 0.229
ACTTTAACTTGGGTTCTAACCTGTTGCTT (site ACTGTAACTAA) | 0.0934
ACTTTAACTTGGGTTCTAACCTGTTGCTT (site ACTTTAACTAA) | 0.217
ACTTTAGCTTGGGTTCTAACCTGTTGCAG (site ACATTAGCTTT) | 0.056
ACTTTAGCTTGGGTTCTAACCTGTTGCAG (site ACTTTAGCTCT) | 0.694
ACTTTGCCTTGGGTTCTAACCTGTTGCCT (site ACATTGCCTAG) | 0.0554
ACTTTGCCTTGGGTTCTAACCTGTTGCCT (site ACCTTGCCTAG) | 0.0879
ACTTTGCCTTGGGTTCTAACCTGTTGCCT (site ACGTTGCCTAG) | 0.0319
ACTTTGCCTTGGGTTCTAACCTGTTGCCT (site ACTTTGCCTAG) | 0.953
AGAAAGTCTTGGGTTCTAACCTGTTGCGT (site AGAAAGTCTAC) | 2.36
AGAAAGTCTTGGGTTCTAACCTGTTGCGT (site AGAGAGTCTAG) | 0.363
AGAAATACTTGGGTTCTAACCTGTTGCCG (site AGAAATACTCG) | 1.07
AGAAATACTTGGGTTCTAACCTGTTGCCG (site GTCCTACCTTA) | 0.0574
AGAACAACTTGGGTTCTAACCTGTTGCCT (site AGAACAACTAG) | 0.388
AGAACAACTTGGGTTCTAACCTGTTGCCT (site AGCACAACTAG) | 0.035
AGAACAACTTGGGTTCTAACCTGTTGCCT (site AGGACAACTAG) | 0.456
AGAACAACTTGGGTTCTAACCTGTTGCCT (site AGTACAACTAG) | 0.102

Sequence | recombinant barcode read abundance (log10)
AGAACTACTTGGGTTCTAACCTGTTGCCA (site AGAACTACTTG) | 0.0417
AGAACTACTTGGGTTCTAACCTGTTGCCA (site CTCGTGTCTAT) | 0.0514
AGAAGTACTTGGGTTCTAACCTGTTGCGG (site AGAAGTACTCC) | 1.86
AGAAGTACTTGGGTTCTAACCTGTTGCGG (site GTAAGTACTCC) | 0.0235
AGAATATCTTGGGTTCTAACCTGTTGCCT (site AGAATATCTAG) | 0.834
AGAATATCTTGGGTTCTAACCTGTTGCCT (site AGATTATCTAG) | 0.193
AGACATCCTTGGGTTCTAACCTGTTGCTT (site AGACATCCTAA) | 0.948
AGACATCCTTGGGTTCTAACCTGTTGCTT (site AGACCTCCTAA) | 0.0971
AGACATCCTTGGGTTCTAACCTGTTGCTT (site AGACGTCCTAA) | 0.0527
AGACATCCTTGGGTTCTAACCTGTTGCTT (site AGACTTCCTAA) | 0.195
AGACCACCTTGGGTTCTAACCTGTTGCCT (site AAACCACCTAG) | 0.383
AGACCACCTTGGGTTCTAACCTGTTGCCT (site ACACCACCTAG) | 0.234
AGACCACCTTGGGTTCTAACCTGTTGCCT (site AGACCACCTAG) | 1.82
AGACCACCTTGGGTTCTAACCTGTTGCCT (site ATACCACCTAG) | 0.847
AGACGGACTTGGGTTCTAACCTGTTGCCA (site AGACGGACTTG) | 1.68
AGACGGACTTGGGTTCTAACCTGTTGCCA (site CTTGCTCCTAT) | 0.145
AGACTAGCTTGGGTTCTAACCTGTTGCGT (site AGACTAGCTAC) | 2.51
AGACTAGCTTGGGTTCTAACCTGTTGCGT (site TTACTAGCTAC) | 0.255
AGACTCCCTTGGGTTCTAACCTGTTGCCT (site AGACTCCCTAG) | 1.22
AGACTCCCTTGGGTTCTAACCTGTTGCCT (site AGCCTCCCTAG) | 0.223
AGACTCCCTTGGGTTCTAACCTGTTGCCT (site AGGCTCCCTAG) | 0.0602
AGACTCCCTTGGGTTCTAACCTGTTGCCT (site AGTCTCCCTAG) | 0.213

Sequence | recombinant barcode read abundance (log10)
AGAGAACCTTGGGTTCTAACCTGTTGCCT (site AGAGAACCTAG) | 2.33
AGAGAACCTTGGGTTCTAACCTGTTGCCT (site CGAGAACCTAG) | 0.415
AGAGAACCTTGGGTTCTAACCTGTTGCCT (site GGAGAACCTAG) | 0.219
AGAGAACCTTGGGTTCTAACCTGTTGCCT (site TGAGAACCTAG) | 1.14
AGAGAATCTTGGGTTCTAACCTGTTGCCT (site AGAGAATCTAG) | 1.28
AGAGAATCTTGGGTTCTAACCTGTTGCCT (site AGCGAATCTAG) | 0.165
AGAGAATCTTGGGTTCTAACCTGTTGCCT (site AGGGAATCTAG) | 0.13
AGAGAATCTTGGGTTCTAACCTGTTGCCT (site AGTGAATCTAG) | 0.196
AGAGATGCTTGGGTTCTAACCTGTTGCAG (site AGAGATGCTCT) | 1.8
AGAGATGCTTGGGTTCTAACCTGTTGCAG (site AGAGGAGCTCT) | 0.289
AGAGCCACTTGGGTTCTAACCTGTTGCTA (site AGAGCCACTTA) | 2.09
AGAGCCACTTGGGTTCTAACCTGTTGCTA (site GCCATTCCTAT) | 0.0124
AGAGGGTCTTGGGTTCTAACCTGTTGCTT (site AGAGGGTCTAA) | 1.82
AGAGGGTCTTGGGTTCTAACCTGTTGCTT (site CGAGGGTCTAA) | 0.186
AGAGGGTCTTGGGTTCTAACCTGTTGCTT (site GGAGGGTCTAA) | 0.0269
AGAGGGTCTTGGGTTCTAACCTGTTGCTT (site TGAGGGTCTAA) | 0.606
AGATCGGCTTGGGTTCTAACCTGTTGCCT (site AGATCGGCTAG) | 0.377
AGATCGGCTTGGGTTCTAACCTGTTGCCT (site AGGTCGGCTAG) | 0.0375
AGATTGACTTGGGTTCTAACCTGTTGCCA (site AGATTCACTAG) | 0.328
AGATTGACTTGGGTTCTAACCTGTTGCCA (site AGATTGACTTG) | 0.193
AGATTGCCTTGGGTTCTAACCTGTTGCCT (site AGATTGCCTAG) | 0.489
AGATTGCCTTGGGTTCTAACCTGTTGCCT (site TGATTTCCTAG) | 0
